For one assay, the system named is LC3-GFP (H4-LC3 cells). Nature of the assay: LC3-GFP image-based autophagy assay in H4-LC3 cells. It counts as cell-based. Here is the method:
FIG. 1 relates to identification of a small molecule inhibitor of autophagy by an image-based screen. A, structure of MBCQ. B, Quantitative analysis of LC3-GFP spot number per cell (a), spot size per cell (b), spot intensity per cell (c). The data are expressed as % of control vehicle treated cells. H4-LC3 cells were seeded in 96 well-plates and incubated with vehicle control (1% DMSO), 0.2 μM rapamycin with or without 10 μM MBCQ for indicated time, fixed with 4% paraformaldehyde and stained with 4,6-diamidino-2-phenylindole (DAPI, 3 μg/ml). Images of 1000 cells for each compound treatment were analyzed by ArrayScan HCS 4.0 Reader with a 20× objective (Cellomics, Pittsburgh, Pa.).
(§1) FIG. 14 depicts MBCQ derivatives that can inhibit autophagy. To calculate EC50, H4-LC3 cells were seeded in 96 well-plates and cultured in the presence of compounds in different concentration for 24 h, and then fixed with polyformate and stained with 4,6-diamidino-2-phenylindole (DAPI, 3 μg/ml). Images data were collected with an ArrayScan HCS 4.0 Reader with a 20× objective (Cellomics, Pittsburgh, Pa.) for DAPI labeled nuclei and GFP-LC3, a marker for autophagy. The Spot Detector Bio-Application was used to acquire and analyze the images after optimization. Images of 1000 cells for each compound treatment were analyzed to obtain average cell number per field, fluorescence spot number, area and intensity per cell. DMSO and rapamycin were used as negative or positive control, respectively. The percentages of changes of LC3-GFP were calculated by dividing with that of DMSO treated samples. Each treatment was done in triplicate for mean and SD. The images were also analyzed using a conventional fluorescence microscope for visual inspection. The experiments were repeated three times
as §1, with “15” for “14”, “with reduced or no ability to” for “that can”, “times.” for “times”
To explore the mechanism of autophagy and identify additional small molecules that can activate it, a high-throughput image-based screen for autophagy regulators was developed. This system takes advantage of the localization of light chain 3 coupled to GFP (LC3-GFP) to autophagosomal membrane upon induction of autophagy (Zhang, L., Yu, J., Pan, H., Hu, P., Hao, Y., Cai, W., Zhu, H., Yu, A. D., Xie, X., Ma, D., et al. (2007). Small molecule regulators of autophagy identified by an image-based high-throughput screen. Proc Natl Acad Sci USA 104, 19023-19028). […] Compounds that increase cellular levels of LC3-GFP, however, are not necessarily able to increase degradative activity of autophagy. Instead, the increases of LC3-GFP may be associated with cell death or may be a result of lysosomal defect and thus associated with blockage of autophagy. […]

The subject of assay [1] is Vps34 complexes. Nature of the assay: Levels of transfected Vps34 complex proteins in 293T cells (western blot). It counts as cell-based. The conditions noted are these: for levels of GFP-p150 and Atg14L: 10 μM, 4 h; for levels of flag-tagged Beclin1 and HA-Vps34: 12 h.
For the next assay, the system named is LC3II in liver. The assay is described as follows: Autophagy in liver of rapamycin injected mice. Particulars: rapamycin 10 mg/kg, 40 mg/kg intraperitoneally every hour for 4 h. It counts as in vivo. Here is the method:
FIG. 13 depicts results showing the effect of MBCQ and derivatives in vivo. (A) Mice were injected with rapamycin (10 mg/kg) alone as a positive control, or with C43 or MBCQ (40 mg/kg) intraperitoneally every hour for 4 h and then sacrificed at 5 th h. The autophagy levels in liver were analyzed by western blotting using anti-LC3 antibody. (B) C43 reduces the levels of autophagy induced by cerulein. Rats were injected intraperitoneally with cerulein (50 μg/kg) alone or with C43 (40 mg/kg) hourly for 4 times. The rats were sacrificed at one h after the last injection and the pancreas were isolated for western blotting analysis using anti-LC3 and anti-tubulin (as a control).
To begin to test the effect of MBCQ derivatives in vivo, the ability of MBCQ derivatives to inhibit autophagy in rapamycin injected mice was investigated. Mice were injected with rapamycin (10 mg/kg) alone as a positive control, or with C43 or MBCQ (40 mg/kg) intraperitoneally every hour for 4 h and then sacrificed at the fifth hour. The autophagy levels in liver were then analyzed by western blotting using anti-LC3 antibody. […] Thus, it was determined that C43 and MBCQ are both active in vivo in inhibiting autophagy.

Assay [2] concerns Vps34 complexes. Nature of the assay: Levels of endogenous Beclin1, Vps34, Atg14L in H4 and 293T cells (western blot). Particulars: for levels of endogenous Beclin1 in the presence of CHX: 293T cells, 6 h, versus CHX alone; for levels of endogenous Beclin1, Vps34 and Atg14L: H4 cells and 293T cells, 10 μM, 3-MA 10 mM.
Experimental: Twenty-four hours after the transfection, the cells were treated with indicated compounds for 12 h. The cell lysates were analyzed by western blotting using anti-HA, anti-flag or anti-tubulin. […] The cell lysates were harvested and analyzed by western blotting using: anti-Beclin1, anti-Atg14, anti-Vps34 and anti-UVRAG. Anti-α-tubulin was used as loading controls. […] The cell lysates were harvested and analyzed by western blotting using: anti-Beclin1 and anti-LC3. Anti-α-tubulin was used as loading controls.
The subject of another assay is Bcap-37 cells. Nature of the assay: Bcap-37 cells, normal and glucose free condition. It counts as cell-based. How it is done:
FIG. 11 depicts results showing that selected cancer cell lines are sensitive to MBCQ and its active derivatives under glucose free condition. BT549 cells were treated with indicated concentrations of C43 for 24 h in normal DMEM (A) or under serum free condition (B). The cell viability was assayed by MTT or harvested for western blotting assay with anti-LC3 (C). MCF-7 cells were treated with DMSO (1‰), C43 (10 μM) in DMEM with (D) or without (E) glucose, for 12 h. The cell viability was assayed by MTT or images (F). […] Bcap-37 cells were treated with indicated concentrations of C43 for 24 h in normal DMEM (H) or under serum free condition (I). The cell viability was assayed by MTT or images (J) And the cell lysates treated with C43 for indicated time were analyzed by western blotting using anti-PARP (L) or anti-LC3 (M) and α-tubulin was used as a loading control. (K) Cell cycle profile of Bcap-37 treated with C43. Bcap-37 cells were treated with DMSO (0.1%) (left figure), C43 (10 μM) (right figure) for 12 h. The cells were then fixed with 70% ethanol, stained with propidium iodide (PI, 40 μg/mL) and treated with RNase enzyme (200 μg/mL) solution for 30 min in dark. Cell cycle profile and possible apoptotic death were statistics analyzed by flow cytometer.
To explore the mechanism by which C43 induces the death of Bcap-37 cells, the DNA content was analyzed by FACS.

Values joined by “and” are separate entries in the source; they are usually repeats but may differ in a detail not shown here. Equal values may be shown once. Read-outs that look alike come from different tables or passages of the source.

For `Clc1ccc2ncnc(NCc3ccc4c(c3)OCO4)c2c1` [MBCQ], the “fold more potent than 3-MA” value with LC3-GFP (H4-LC3 cells) (IC50 versus 3-MA working concentration of 10 mM) is “about 10,000 fold”. Also, the “LC3-GFP dots (number, spot size, spot intensity)” value with LC3-GFP (H4-LC3 cells) (basal and rapamycin (0.2 μM) stimulated, 10 μM MBCQ) is listed as “reduced the number, spot size as well as spot intensity”. For the same compound, the IC50 with LC3-GFP (H4-LC3 cells) (rapamycin and MBCQ together versus rapamycin alone, read-out: IC50 (intensity of LC3-GFP)) stood at 788 nM. Besides, in the assay with Vps34 complexes [1], the “levels of GFP-p150 and Atg14L” value was “reduced the levels”; the “levels of flag-tagged Beclin1 and HA-Vps34” value was “considerably lower”. For the same compound, the “levels of LC3II in liver” value in the assay with LC3II in liver is “significantly reduced the levels of LC3II”. Moreover, in the assay with Vps34 complexes [2], the “levels of endogenous Beclin1 in the presence of CHX” value is reported as “notably lower”; the “levels of endogenous Beclin1, Vps34 and Atg14L” value is “reduce the levels of endogenous Beclin1, Vps34 and Atg14L”.

Regarding `Fc1ccc(CNc2ncnc3ccc(F)cc23)cc1` [C43, 6-fluoro-N-(4-fluorobenzyl)quinazolin-4-amine], in the assay with LC3-GFP (H4-LC3 cells) (cell-based assays, read-out: IC50, inhibition of autophagy), the IC50 was 870 nM and ~800 nM. In the assay with Vps34 complexes [1], the “levels of GFP-p150 and Atg14L” value is listed as “reduced the levels”; the “levels of flag-tagged Beclin1 and HA-Vps34” value is on record as “considerably lower”. Further, the “degradation of GFP-Beclin1, pathway” value in the assay with Vps34 complexes [1] (with MG132 or NH4Cl) is “promotes the degradation of Beclin1 through the proteasomal pathway”. The “autophagy (western blot)” value in the assay on Bcap-37 cells (basal and glucose-free conditions) is “inhibited autophagy”. Further, the “sensitivity of cells to compound” value in the assay on Bcap-37 cells (glucose free condition) is “highly sensitive”. Besides, in the assay on Bcap-37 cells (glucose-free condition), the “DNA content by FACS” value was “induced a peak of sub-diploid DNA”. In the assay on Bcap-37 cells (in the presence of 10% bovine serum), the proliferation result was “inhibited the proliferation”. Further, the “levels of LC3II in liver” value with LC3II in liver is “significantly reduced the levels of LC3II”. In addition, in the assay on Vps34 complexes [2], the “levels of endogenous Beclin1 in the presence of CHX” value is given as “notably lower”; the “levels of endogenous Beclin1, Vps34 and Atg14L” value was “reduce the levels of endogenous Beclin1, Vps34 and Atg14L”.
